Laboratory results published in patent US10806765B2, “Immunologically active phyto-mixture and its use in the prevention and in a method for treatment of efflorescences” (priority 2015, dated 2020).
≈ marks a conversion by molar mass, not a printed value. Like-named read-outs stand apart in the source and are kept apart here.

Columns and labels:
Assay type in all cases: cell-based
[1] = tested on: Staphylococcus aureus ATCC 25923; test: MIC/MBC, microbouillon dilution
Method: (§1) Gram-Positive Bacteria • Methicillin resistant Staphylococcus aureus MRSA NCTC 10442 (MRSA NCTC 10442) • Staphylococcus aureus ATCC 25923 (S. aureus ATCC 25923) • Staphylococcus epidermidis ATCC 14990 (S. epid. ATCC 14990)
(§2) Gram-Negative Bacteria • Pseudomonas aeruginosa ATCC 27853 (P. aerug. ATCC 27853) and • Acinetobacter baumanii ATCC BAA747 (ATCC BAA747)
(§3) The bacteria were precultivated on Columbia medium with 5% sheep blood at 37° C. for 24 hours. On to two colonies were suspended in saline solution (0.9% NaCl) and adjusted to a turbidity of 0.5 McFarland standard which corresponds to 1×10^8 colony forming units per milliliter (CFU/ml). Subsequently, the suspension was diluted to 1×10^6 CFU/ml.
(§4) Determination of the Minimal Inhibitory Concentration (MIC) and the Minimum Bactericidal Concentration (MBC)
(§5) The MIC was determined by means of the microbouillon dilution process according to NCCLS (2006). For this purpose, the aqueous extracts were dissolved in water (w/v) and the ethanolic extracts in 5% DMSO (w/v) with 80 mg/ml each and Bur. simaruba as well as Aloe vera were suspended with 160 mg/ml. The extracts and the combinations (1:1 mixture) of two plant extracts were respectively transferred into a sample well of a 96-well plate. The individual extracts were respectively adjusted to a concentration of 4 mg/ml to 8 mg/ml and 0.03 mg/ml and the combinations to 2:2 mg/ml to 0.3:0.3 mg/ml. Subsequently, the bacteria suspensions with about 5×10^5 CFU/ml in Müller Hinton medium (Fluka) were respectively added. The accordingly fitted 96-well plates were incubated at 37° C. for 24 hours.
(§6) The MIC was determined at 600 nm on the basis of the turbidity. In order to determine the MBC, 3 μl of the suspension of the respective sample well were spread on an full culture medium and incubated at 37° C. for 24 hours. The MBC was determined as lowest concentrations of the respective extract which totally kills the microorganisms.
(§7) All experiments were performed as three-fold determination (Table 4 to 5). The antibiotics Vancomycin (briefly: Van) and Streptomycin (briefly: Strep) were used parallely to each experimental approach as positive control for antimicrobial efficiency (Table 5c). Respectively one of the mentioned test germs was carried along with the respectively solvent (water, DMSO) as negative control for an inhibiting effect by the used solvent.

[2] = tested on: Staphylococcus epidermidis ATCC 14990; test: MIC/MBC, microbouillon dilution
Method: as §1, §2, §3, §4, §5, §6, §7

[3] = tested on: Pseudomonas aeruginosa ATCC 27853; test: MIC/MBC, microbouillon dilution; details: ATCC27853, positive control antibiotic, unit from Table 5c
Method: as §1, §2, §3, §4, §5, §6, §7

[4] = tested on: Acinetobacter baumanii ATCC BAA747; test: MIC/MBC, microbouillon dilution; details: Acinetobacter baumannii, ATCCBAA747
Method: as §1, §2, §3, §4, §5, §6, §7

[5] = tested on: Methicillin resistant Staphylococcus aureus MRSA NCTC 10442; test: MIC/MBC, microbouillon dilution
Method: as §1, §2, §3, §4, §5, §6, §7

[6] = MTT-assay, cytotoxicity of the extracts; details: human, HaCaT cells (keratinocytes), individual extracts, mean ± SD, n=3
Method: HaCaT-Cells (human in vitro spontaneous transformed keratinocytes from histologically normal skin) of DMSZ (German Collection of Microorganisms and Cell Cultures) were kept in Dulbecco's modified Eagle Medium (DMEM) with glutamax (Invitrogen/Gibco, Karlsruhe, Germany) with 10% fetal calf serum (Sigma Aldrich, Germany), 100 U/ml penicillin and 100 μg/ml streptomycin and 1% NEAA.
The cells were cultivated at 37° C., 5% CO2 and 95% humidity. The cells were subcultivated by removing the medium, adding 0.075% EDTA-solution in 1-fold PBS (phosphate-buffered salt solution) and subsequently incubated at 37° C. for 10 min. […]
In order to determine the concentration dependent cytotoxicity 2×10^4 HaCaT-cells/sample well of a 96-well plate were transferred and incubated for 24 hours. […] After dissolving the formazan crystals formed by the HaCaT-cells in 100 μl DMSO (10 minutes shaking), absorption at 570 nm was measured (by means of Tecan Safire II Reader, Tecan Crailsheim, Germany). Doxorubicin was measured as reference. Cell vitality was determined according to the following formula:
IC50-values were calculated through the dose response curve which was created by use of a logistic regression curve with 4 parameters with the GraphPad Prism® 5.01 Software or SigmaPlot® 11.0.

[H]/N=C(/N)N[C@H]1[C@H](O)[C@@H](O)[C@H](O[C@@H]2O[C@@H](C)[C@](O)(C=O)[C@H]2O[C@@H]2O[C@@H](CO)[C@H](O)[C@@H](O)[C@@H]2NC)[C@@H](N/C(N)=N\[H])[C@@H]1O [Strep, Streptomycin]
MIC ([1]; ATCC25923, positive control antibiotic, unit from Table 5c): 2 µg/mL | MBC ([1]; ATCC25923, positive control antibiotic, unit from Table 5c, read-out: MBC): 8 µg/mL | MBC ([2]; ATCC14990, positive control antibiotic, unit from Table 5c, read-out: MBC): 8 µg/mL | MIC ([2]; ATCC14990, positive control antibiotic, unit from Table 5c, read-out: MIC): 1 µg/mL | MBC [3]: 8 µg/mL | MIC [3]: 4 µg/mL | MBC ([4]; positive control antibiotic, unit from Table 5c, read-out: MBC): 4 µg/mL | MIC ([4]; positive control antibiotic, unit from Table 5c, read-out: MIC): 2 µg/mL

CN[C@H](CC(C)C)C(=O)N[C@H]1C(=O)N[C@@H](CC(N)=O)C(=O)N[C@H]2C(=O)N[C@H]3C(=O)N[C@H](C(=O)N[C@H](C(=O)O)c4cc(O)cc(O)c4-c4cc3ccc4O)[C@H](O)c3ccc(c(Cl)c3)Oc3cc2cc(c3O[C@@H]2O[C@H](CO)[C@@H](O)[C@H](O)[C@H]2O[C@H]2C[C@](C)(N)[C@H](O)[C@H](C)O2)Oc2ccc(cc2Cl)[C@H]1O [Van, Vancomycin]
MBC ([1]; ATCC25923): 0.5 µg/mL | MBC [5]: 2 µg/mL | MIC [5]: 1 µg/mL | MBC ([2]; ATCC14990): 2 µg/mL | MIC ([2]; ATCC14990): 1 µg/mL | MBC [4]: 128 µg/mL | MIC [4]: 64 µg/mL

COc1cccc2c1C(=O)c1c(O)c3c(c(O)c1C2=O)C[C@@](O)(C(=O)CO)C[C@@H]3O[C@H]1C[C@H](N)[C@H](O)[C@H](C)O1 [Doxorubicin]
IC50 [6]: 8.6 ± 2.03 µg/mL (≈ 15.8 µM)
